Activity calls are given as the source filed them. The rule behind the calls is not given here.
Tests used:
Dipeptidyl peptidase 9 = Dipeptidyl peptidase 9 (Homo sapiens, UniProt Q86TI2); experiment: Inhibition of human recombinant DPP-9 using H-Gly-Pro-AMC as substrate after 10 mins by fluorescence assay
[1] = Inhibition of ADP-induced platelet aggregation in human platelet-rich plasma at 0.1 mM preincubated for 5 mins followed by ADP-stimulation and measured within 5 mins by Born's turbidimetric analysis relative to control; conditions: read-out: INH
Dipeptidyl peptidase 8 = Dipeptidyl peptidase 8 (Homo sapiens, UniProt Q6V1X1); experiment: Inhibition of human recombinant DPP-8 using H-Gly-Pro-AMC as substrate after 10 mins by fluorescence assay
Chain of Dipeptidyl peptidase 8 (Q6V1X1 whole entry): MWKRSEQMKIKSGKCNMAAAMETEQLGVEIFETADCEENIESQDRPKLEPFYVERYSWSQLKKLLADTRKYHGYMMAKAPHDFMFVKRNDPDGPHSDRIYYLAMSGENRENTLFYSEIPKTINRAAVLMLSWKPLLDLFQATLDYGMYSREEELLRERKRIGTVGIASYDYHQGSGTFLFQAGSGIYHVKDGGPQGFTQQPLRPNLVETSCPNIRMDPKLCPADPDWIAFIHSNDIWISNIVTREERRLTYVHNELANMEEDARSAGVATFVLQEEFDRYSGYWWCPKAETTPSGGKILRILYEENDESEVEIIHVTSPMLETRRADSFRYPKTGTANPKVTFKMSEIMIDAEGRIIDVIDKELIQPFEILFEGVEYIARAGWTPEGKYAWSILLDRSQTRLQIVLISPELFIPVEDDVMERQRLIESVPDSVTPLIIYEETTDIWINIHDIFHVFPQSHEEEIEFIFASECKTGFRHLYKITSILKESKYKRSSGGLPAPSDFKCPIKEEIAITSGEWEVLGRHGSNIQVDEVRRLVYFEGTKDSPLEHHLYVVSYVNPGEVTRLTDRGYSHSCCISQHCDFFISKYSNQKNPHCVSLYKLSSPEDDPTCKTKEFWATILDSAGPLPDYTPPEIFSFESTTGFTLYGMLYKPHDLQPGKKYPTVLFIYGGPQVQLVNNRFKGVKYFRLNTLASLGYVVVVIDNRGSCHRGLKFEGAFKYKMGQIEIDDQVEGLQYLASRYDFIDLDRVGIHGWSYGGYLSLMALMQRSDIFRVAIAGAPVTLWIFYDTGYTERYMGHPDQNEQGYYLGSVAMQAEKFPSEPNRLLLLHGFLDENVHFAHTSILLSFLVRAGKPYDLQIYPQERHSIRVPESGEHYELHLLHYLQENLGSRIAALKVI

[2] = Induction of NO production in pH 7.4 PBS incubated for 1 to 14 hrs under dark conditions and measured every 1 hr for 2 hrs and then every 2 hrs for remaining time by Griess assay; assay type: functional

Chain of Dipeptidyl peptidase 9 (Q86TI2 whole entry): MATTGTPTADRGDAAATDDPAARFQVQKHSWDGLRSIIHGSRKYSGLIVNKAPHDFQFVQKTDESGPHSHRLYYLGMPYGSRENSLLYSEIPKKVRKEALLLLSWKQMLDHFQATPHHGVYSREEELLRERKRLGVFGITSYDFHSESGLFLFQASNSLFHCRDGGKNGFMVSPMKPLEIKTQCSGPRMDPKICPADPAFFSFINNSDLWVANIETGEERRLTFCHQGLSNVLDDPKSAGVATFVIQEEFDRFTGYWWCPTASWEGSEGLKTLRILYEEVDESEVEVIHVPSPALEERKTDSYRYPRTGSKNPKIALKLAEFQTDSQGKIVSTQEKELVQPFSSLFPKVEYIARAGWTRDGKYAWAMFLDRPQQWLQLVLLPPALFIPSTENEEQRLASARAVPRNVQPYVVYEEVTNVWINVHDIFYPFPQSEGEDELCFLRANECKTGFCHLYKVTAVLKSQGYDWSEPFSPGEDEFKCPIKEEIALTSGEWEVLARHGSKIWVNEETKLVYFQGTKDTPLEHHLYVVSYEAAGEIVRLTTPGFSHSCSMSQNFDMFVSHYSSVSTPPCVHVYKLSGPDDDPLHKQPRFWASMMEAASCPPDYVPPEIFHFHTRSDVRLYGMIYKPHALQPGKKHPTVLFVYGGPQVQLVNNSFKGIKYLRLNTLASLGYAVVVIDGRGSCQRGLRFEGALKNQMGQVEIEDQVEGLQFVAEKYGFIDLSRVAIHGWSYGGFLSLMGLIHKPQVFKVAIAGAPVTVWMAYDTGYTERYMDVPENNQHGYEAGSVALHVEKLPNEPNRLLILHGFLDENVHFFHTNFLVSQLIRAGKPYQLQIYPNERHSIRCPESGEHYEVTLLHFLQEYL

SMILES: O=C(CO[N+](=O)[O-])N[C@@H](CC(=O)N1CCn2c(nnc2C(F)(F)F)C1)Cc1cc(F)c(F)cc1F
- IC50 (Dipeptidyl peptidase 9): > 100 µM
- inhibition at 100 µM [1]: 22.4%
- IC50 (Dipeptidyl peptidase 8): > 100 µM
- Activity [2]: Active

SMILES: O=C(CCCO)N[C@@H](CC(=O)N1CCn2c(nnc2C(F)(F)F)C1)Cc1cc(F)c(F)cc1F
- IC50 (Dipeptidyl peptidase 9): > 100 µM
- inhibition at 100 µM [1]: 3.41%
- IC50 (Dipeptidyl peptidase 8): > 100 µM

SMILES: O=C(CCCCCO)N[C@@H](CC(=O)N1CCn2c(nnc2C(F)(F)F)C1)Cc1cc(F)c(F)cc1F
- IC50 (Dipeptidyl peptidase 9): > 100 µM
- inhibition at 100 µM [1]: 3.63%
- IC50 (Dipeptidyl peptidase 8): > 100 µM

SMILES: O=C(CCCCO)N[C@@H](CC(=O)N1CCn2c(nnc2C(F)(F)F)C1)Cc1cc(F)c(F)cc1F
- IC50 (Dipeptidyl peptidase 9): > 100 µM
- inhibition at 100 µM [1]: 2.02%
- IC50 (Dipeptidyl peptidase 8): > 100 µM

SMILES: O=C(CCCCCO[N+](=O)[O-])N[C@@H](CC(=O)N1CCn2c(nnc2C(F)(F)F)C1)Cc1cc(F)c(F)cc1F
- IC50 (Dipeptidyl peptidase 9): > 100 µM
- inhibition at 100 µM [1]: 40.2%
- IC50 (Dipeptidyl peptidase 8): > 100 µM
- Activity [2]: Active

SMILES: CC(=O)Oc1ccccc1C(=O)O [ASPIRIN]
- inhibition at 100 µM [1]: 26%

SMILES: O=C(CCCCO[N+](=O)[O-])N[C@@H](CC(=O)N1CCn2c(nnc2C(F)(F)F)C1)Cc1cc(F)c(F)cc1F
- IC50 (Dipeptidyl peptidase 9): > 100 µM
- inhibition at 100 µM [1]: 32.1%
- IC50 (Dipeptidyl peptidase 8): > 100 µM
- Activity [2]: Active

SMILES: N[C@@H](CC(=O)N1CCn2c(nnc2C(F)(F)F)C1)Cc1cc(F)c(F)cc1F [SITAGLIPTIN]
- inhibition at 100 µM [1]: 4.24%

SMILES: O=C(CO)N[C@@H](CC(=O)N1CCn2c(nnc2C(F)(F)F)C1)Cc1cc(F)c(F)cc1F
- IC50 (Dipeptidyl peptidase 9): > 100 µM
- inhibition at 100 µM [1]: 3.22%
- IC50 (Dipeptidyl peptidase 8): > 100 µM

SMILES: O=C(CCCO[N+](=O)[O-])N[C@@H](CC(=O)N1CCn2c(nnc2C(F)(F)F)C1)Cc1cc(F)c(F)cc1F
- IC50 (Dipeptidyl peptidase 9): > 100 µM
- inhibition at 100 µM [1]: 27.6%
- IC50 (Dipeptidyl peptidase 8): > 100 µM
- Activity [2]: Active

Source: ChEMBL document CHEMBL4325850 (Bioorg Med Chem Lett, 2018)
